Data: PubChem BioAssay (NCI)
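Each compound was tested at five concentrations against cells in 96-well plates for 48 hours. At the TGI there is no net growth.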

Experiments:
Test in all cases: NCI tumour cell line growth inhibition, 48 h
UACC-62 melanoma = test system: UACC-62 melanoma
SK-MEL-28 melanoma = test system: SK-MEL-28 melanoma
CAKI-1 renal = test system: CAKI-1 renal
MALME-3M melanoma = test system: MALME-3M melanoma
SK-MEL-5 melanoma = test system: SK-MEL-5 melanoma
HOP-92 NSCLC = test system: HOP-92 NSCLC
U251 CNS = test system: U251 CNS
LOX IMVI melanoma = test system: LOX IMVI melanoma
TK-10 renal = test system: TK-10 renal
KM12 colon = test system: KM12 colon
SK-OV-3 ovarian = test system: SK-OV-3 ovarian
MCF7 breast = test system: MCF7 breast

Row | Compound | TGI (UACC-62 melanoma) [µM] | TGI (SK-MEL-28 melanoma) [µM] | TGI (CAKI-1 renal) [µM] | TGI (MALME-3M melanoma) [µM] | TGI (SK-MEL-5 melanoma) [µM] | TGI (HOP-92 NSCLC) [µM] | TGI (U251 CNS) [µM] | TGI (LOX IMVI melanoma) [µM] | TGI (TK-10 renal) [µM] | TGI (KM12 colon) [µM] | TGI (SK-OV-3 ovarian) [µM] | TGI (MCF7 breast) [µM]
1 | Nc1ccc(C(=O)NN2C(=O)C(Cl)C2c2ccc([N+](=O)[O-])cc2)cc1 (configuration not stated) | 24.7 | 20.1 | 36.1 | 25 | 28.8 | 37.1 | 5.28 | 5.2 | 33.5 | 23.9 | 29.1 | –
2 | Cc1nc(N)c(N2CCN(Cc3ccccc3)CC2)c(=O)[nH]1 | – | > 100 | – | > 100 | – | – | > 100 | > 100 | > 100 | > 100 | – | > 100
3 | O=C(Nc1ccccc1)Nn1c(-c2cccs2)nc2ccc(I)cc2c1=O | > 100 | 53.6 | 53.3 | – | 40.7 | 59.7 | 64.8 | 49.1 | 60.6 | 94.8 | 71.2 | 87.7
4 | CCn1c(-c2ccccc2)nc2c1C(=O)c1ccccc1C2=O | 60.2 | > 100 | – | 21.7 | 23.2 | 82 | > 100 | – | 85.9 | 73.8 | 86 | > 100
5 | CCN(CC)CCNc1ccc2ncn3c4c(OC)cccc4c(=O)c1c23 | 25.3 | 21.7 | > 100 | 21.4 | 13.3 | 18.4 | 19.3 | – | 77.7 | 17.4 | 24 | –
6 | Fc1ccc(NCn2nc(COc3ccccc3Cl)n(/N=C/c3ccc(-c4ccc(Cl)cc4Cl)o3)c2=S)cc1Cl | – | > 100 | > 100 | – | 29.9 | – | 75.2 | > 100 | > 100 | 99 | > 100 | > 100
7 | CC1CC(=O)C(CC(=O)O)C1C(C(=O)C(=O)Nc1c(C#N)cccc1[N+](=O)[O-])[N+](=O)[O-] (configuration not stated) | > 100 | > 100 | > 100 | > 100 | > 100 | > 100 | > 100 | > 100 | > 100 | > 100 | > 100 | –
8 | Cn1c(=O)c2nc3nnc(C#N)c(N)n3c2n(C)c1=O | > 100 | > 100 | > 100 | 81.2 | > 100 | > 100 | > 100 | – | > 100 | > 100 | > 100 | > 100
9 | CC(C)[Si](OCC1CC(C[C@H]2CC(C[C@H]3C[C@@H](CO[Si](C(C)C)(C(C)C)C(C)C)OC(C)(C)O3)OC(C)(C)O2)OC(C)(C)O1)(C(C)C)C(C)C (some centres not stated) | > 100 | > 100 | > 100 | > 100 | > 100 | > 100 | > 100 | > 100 | > 100 | > 100 | > 100 | –
10 | COc1ccc(/C=C(\C(=O)OCC(C)C)c2ccc(OC)c(OC)c2)cc1OC | > 100 | > 100 | > 100 | – | > 100 | > 100 | > 100 | > 100 | > 100 | – | – | > 100
11 | O=C1SC(c2ccccc2)(c2ccccc2)c2ccccc21 | > 100 | > 100 | > 100 | > 100 | > 100 | – | > 100 | > 100 | > 100 | > 100 | > 100 | –
12 | O=C(O)C(Cc1cnc[nH]1)N=Cc1nc(-c2ccccc2)oc1O (configuration not stated) | > 100 | > 100 | – | > 100 | > 100 | > 100 | > 100 | > 100 | > 100 | – | > 100 | –
13 | Cc1ccc([N+](=O)[O-])cc1NC(=O)C(=O)Cc1cc(=O)oc2cc(O)ccc12 | > 100 | > 100 | > 100 | > 100 | > 100 | > 100 | > 100 | 97 | > 100 | > 100 | > 100 | –
14 | CC(C)C(Sc1nc(-c2ccccc2)c(-c2ccccc2)[nH]1)C(=O)N/N=C/c1ccc([N+](=O)[O-])cc1 (configuration not stated) | 31.5 | 30.6 | 47.9 | 30 | 21.3 | 35.4 | 29.8 | 26 | > 100 | 24.5 | 48.2 | –
15 | CC1(C)O[C@H]2[C@@H]3N=C(c4ccccc4)O[C@@H]3C=C[C@H]2O1 | > 100 | > 100 | > 100 | – | > 100 | > 100 | > 100 | > 100 | > 100 | > 100 | > 100 | > 100
16 | CNC(=O)c1n[nH]n(Cc2ccccc2)c1=S | > 100 | > 100 | > 100 | – | > 100 | – | > 100 | – | > 100 | > 100 | > 100 | > 100
17 | Cc1cc(N(CCC#N)CCC#N)ccc1/C(N=Nc1ccccc1)=N\NC(=O)c1ccccc1 | 45.5 | – | 72.6 | > 100 | > 100 | – | > 100 | – | 41 | > 100 | > 100 | > 100
18 | Cc1ccc(S(=O)(=O)N/N=C/c2oc(-c3ccccc3Cl)c(-c3ccccc3Cl)c2[N+](=O)[O-])cc1 | 65.8 | 62.9 | > 100 | 71.4 | 43.1 | 55 | – | – | > 100 | > 100 | > 100 | –
19 | C[N+](C)(C)C1(C(=O)[O-])CC1 | – | > 100 | – | > 100 | > 100 | > 100 | > 100 | > 100 | > 100 | – | – | > 100
20 | COC1=CC(=O)c2c(O)ccc(O)c2C1=O | 4.21 | 3.71 | – | 0.357 | 2.65 | 33 | 22.1 | – | 28.3 | 16.4 | 33 | 8.02
